Assay results as given in patent US11731973B2, “Substituted pyrazolo[3,4-d]pyrimidines as mTOR inhibitors” (GALDERMA RESEARCH & DEVELOPMENT, priority 2018, dated 2023).

Assays:
mTORC1 = mTORC1 (Homo sapiens (Human), UniProt P42345); assay: mTORC1 inhibitory activity: phosphorylation of S6RP in A431 cells (HTRF); assay type: cell-based; conditions: 3 hours at 37° C.
Experimental: (§1) The serial dilutions of the test molecules are added (0.1% DMSO final). After incubation for 3 hours at 37° C., the phosphorylation of the biomarkers S6RP (mTORC1) and AKT (mTORC2) is measured using the HTRF technology (Cisbio) according to the supplier's recommendations. […] The IC50 values are calculated using a 4-parameter logistic model with the aid of the XLFit software (IDBS).

mTORC2 = mTORC2 (Homo sapiens (Human), UniProt P42345); assay: mTORC2 inhibitory activity: phosphorylation of AKT in A431 cells (HTRF); assay type: cell-based; conditions: 3 hours at 37° C.
Experimental: as §1

mTOR = mTOR (Homo sapiens (Human), UniProt P42345); assay: Inhibitory activity on mTOR kinase (LANTHASCREEN TR-FRET); assay type: biochemical; conditions: 1 hour reaction at room temperature
Experimental: After 1 hour of reaction at room temperature, 10 μL of a solution containing 10 mM final of EDTA and 2 nM final of terbium-labeled antibodies are added. After at least 30 minutes of incubation at room temperature, the TR-FRET signal is measured with a suitable microplate reader according to the supplier's recommendations. […] The IC50 values are calculated using a 4-parameter logistic model with the aid of the XLFit software (IDBS).

[1] = system: patch model of atopic dermatitis; assay: Patch model of atopic dermatitis (DERP epicutaneous sensitization) in mice; assay type: in vivo, Balb/c mice; conditions: 0.07% in acetone vehicle, topical
Experimental: The antagonist (mTOR inhibitor) according to example 31 tested was formulated at 0.07% in an acetone vehicle, applied to the skin of the back of the mouse (10 μl/ear on the two faces) and left for 2 hours before applying the DERP patches. Topical treatments with the antagonist (mTOR inhibitor) or a corticosteroid (betamethasone 17-valerate at 0.01% used as control) were performed only three times in the course of the third and final week of sensitization (on days 44, 47 and 50).
The transepidermal water loss TEWL is measured using a […]® on a control animal. The […]® probe measures the density gradient of water evaporation from the skin indirectly by means of two pairs of sensors (temperature and relative humidity) inside a hollow cylinder. A microprocessor analyzes the values and expresses the evaporation rate in g/h/m2.
The epidermal thickness is measured by histological morphometric analyses on sections 6 μm thick stained with HE using skin samples fixed beforehand with […].
The inflammation score is defined visually as a function of predefined scales of dryness, cutaneous eruption, baldness, excoriation and lichenification. The mean of the five scores attributed to an individual mouse on a given day gives the clinical score attributed on that specific day.
To evaluate the contribution of mTOR to the inflammatory response of atopic dermatitis, the inventors used an atopic dermatitis model described previously based on repeated epicutaneous sensitizations (Spergel et al. JCI 1998; Staumont-Sallé et al. JEM 2015), with Dermatophagoides pteronyssinus (DERP) as antigen. In this model, the skin lesions caused by the atopic dermatitis present inflammation with Th2 dominant characterized by dermal infiltration of CD4+T lymphocytes and of eosinophils accompanied by deposition of eosinophil products and an increase in the cutaneous expression of the Th2 cytokines.
Following the protocol of example 33, the inflammatory response of atopic dermatitis was provoked by epicutaneous sensitization with patches soaked with 100 μg of allergen in sterile saline solution (Dermatophagoides pteronyssinus or DERP) or with a vehicle applied to the abdominal skin 24 hours after shaving and left in place for three periods of one week (with renewal of the patch in the middle of the week), with a 2-week interval between the applications. The presence of the patches and of a transparent occlusive dressing on top prevented the mice from licking, biting and scratching; consequently, the inflammatory response in this model is not due to the itching cycle.
The antagonist according to example 31 (mTOR inhibitor) was formulated at 0.07% in an acetone-based vehicle, applied to the sensitized skin 2 hours before installation of the DERP patches. […]

[2] = days 44, 47 and 50, female Balb/c mice, DERP patches

SMILES | IC50 (mTORC1) | IC50 (mTORC2) | Ki (mTOR) | change in epidermal thickness (epidermal acanthosis) [1, 2] | change in inflammatory scores [1, 2] | decrease of the increase in the rate of transepidermal water loss TEWL [1, 2] | effect on the parameters studied (TEWL, epidermal thickness, inflammation score) ([1]; DERP patch model in mice)
CC(C)C[C@H](C)n1nc(-c2cc3nc(N)oc3cc2F)c2c(N)nc(N)nc21 [Example 2, 3-(2-amino-6-fluorobenzoxazol-5-yl)-1-((S)-1,3-dimethylbutyl)-1H-pyrazolo[3,4-d]pyrimidine-4,6-diamine] | 1.2 nM | 2.1 nM | 1 nM |  |  |  | 
CC1(Cn2nc(-c3cc4nc(N)oc4cc3F)c3c(N)nc(N)nc32)CCC1 [Example 4, 3-(2-amino-6-fluorobenzoxazol-5-yl)-1-(1-methylcyclobutylmethyl)-1H-pyrazolo[3,4-d]pyrimidine-4,6-diamine] | 1.3 nM | 3.4 nM |  |  |  |  | 
CCC(C)(C)Cn1nc(-c2ccc3oc(N)nc3c2)c2c(N)nc(N)nc21 [Example 8, 3-(2-aminobenzoxazol-5-yl)-1-(2,2-dimethylbutyl)-1H-pyrazolo[3,4-d]pyrimidine-4,6-diamine] | 1.2 nM | 3 nM | 0.6 nM |  |  |  | 
CCNc1nc2cc(-c3nn(CC(C)(C)C)c4nc(N)nc(N)c34)ccc2o1 [Example 11, 1-(2,2-dimethylpropyl)-3-(2-ethylaminobenzoxazol-5-yl)-1H-pyrazolo[3,4-d]pyrimidine-4,6-diamine] | 5 nM | 5.9 nM | 0.8 nM |  |  |  | 
C=CC(C)(C)Cn1nc(-c2ccc3oc(N)nc3c2)c2c(N)nc(N)nc21 [Example 12, 3-(2-aminobenzoxazol-5-yl)-1-(2,2-dimethylbut-3-enyl)-1H-pyrazolo[3,4-d]pyrimidine-4,6-diamine] | 1.1 nM | 3.7 nM | 1.2 nM |  |  |  | 
CC(C)(Cn1nc(-c2ccc3oc(N)nc3c2)c2c(N)nc(N)nc21)[C@@H]1CCCO1 [Example 13, (+)-3-(2-aminobenzoxazol-5-yl)-1-((S)-2-methyl-2-tetrahydrofuran-2-ylpropyl)-1H-pyrazolo[3,4-d]pyrimidine-4,6-diamine] | 1.4 nM | 4.1 nM | 1.2 nM |  |  |  | 
C#CC(C)(C)Cn1nc(-c2ccc3oc(N)nc3c2)c2c(N)nc(N)nc21 [Example 14, 3-(2-aminobenzoxazol-5-yl)-1-(2,2-dimethylbut-3-ynyl)-1H-pyrazolo[3,4-d]pyrimidine-4,6-diamine] | 1.2 nM | 3.8 nM | 1.2 nM |  |  |  | 
CC(C)(CO)Cn1nc(-c2ccc3oc(N)nc3c2)c2c(N)nc(N)nc21 [Example 15, 3-[4,6-diamino-3-(2-aminobenzoxazol-5-yl)pyrazolo[3,4-d]pyrimidin-1-yl]-2,2-dimethylpropan-1-ol] | 1.7 nM | 7.2 nM | 1.5 nM |  |  |  | 
CSC(C)(C)Cn1nc(-c2ccc3oc(N)nc3c2)c2c(N)nc(N)nc21 [Example 16, 3-(2-aminobenzoxazol-5-yl)-1-(2-methyl-2-methylsulfanylpropyl)-1H-pyrazolo[3,4-d]pyrimidine-4,6-diamine] | 2.2 nM | 10.2 nM | 1.7 nM |  |  |  | 
CC(C)(C)Cn1nc(-c2ccc3oc(N)nc3c2Cl)c2c(N)nc(N)nc21 [Example 17, 3-(2-amino-4-chlorobenzoxazol-5-yl)-1-(2,2-dimethylpropyl)-1H-pyrazolo[3,4-d]pyrimidine-4,6-diamine] | 1.2 nM | 4 nM | 1.8 nM |  |  |  | 
COc1cc2oc(N)nc2cc1-c1nn(CC(C)(C)C)c2nc(N)nc(N)c12 [Example 18, 3-(2-amino-6-methoxybenzoxazol-5-yl)-1-(2,2-dimethylpropyl)-1H-pyrazolo[3,4-d]pyrimidine-4,6-diamine] | 2.1 nM | 4.3 nM | 2.1 nM |  |  |  | 
CC(C)(C)Cn1nc(-c2cc3cc(O)cnc3[nH]2)c2c(N)nc(N)nc21 [Example 19, 2-[4,6-diamino-1-(2,2-dimethylpropyl)-1H-pyrazolo[3,4-d]pyrimidin-3-yl]-1H-pyrrolo[2,3-b]pyridin-5-ol] | 27.4 nM | 65.5 nM | 2.3 nM |  |  |  | 
CCC(C)(C)Cn1nc(-c2cc3nc(N)oc3cc2OC)c2c(N)nc(N)nc21 [Example 20, 3-(2-amino-6-methoxybenzoxazol-5-yl)-1-(2,2-dimethylbutyl)-1H-pyrazolo[3,4-d]pyrimidine-4,6-diamine] | 2.1 nM | 7 nM | 2.9 nM |  |  |  | 
CC(C)n1nc(-c2ccc3oc(N)nc3c2)c2c(N)nc(N)nc21 [Example 21, 3-(2-aminobenzoxazol-5-yl)-1-isopropyl-1H-pyrazolo[3,4-d]pyrimidine-4,6-diamine] | 3.8 nM | 10.7 nM | 3.8 nM |  |  |  | 
CCC(CC)(Cn1nc(-c2ccc3oc(N)nc3c2)c2c(N)nc(N)nc21)S(C)(=O)=O [Example 22, 3-(2-aminobenzoxazol-5-yl)-1-(2-ethyl-2-methanesulfonylbutyl)-1H-pyrazolo[3,4-d]pyrimidine-4,6-diamine] | 10.2 nM | 26.6 nM | 3.9 nM |  |  |  | 
CC(C)Cn1nc(-c2ccc3oc(N)nc3c2)c2c(Cl)nc(N)nc21 [Example 23, 3-(2-aminobenzoxazol-5-yl)-4-chloro-1-isobutyl-1H-pyrazolo[3,4-d]pyrimidin-6-ylamine] | 2.8 nM | 5.9 nM | 5.8 nM |  |  |  | 
CC(C)n1nc(-c2ccc3oc(N)nc3c2)c2cnc(N)nc21 [Example 24, 3-(2-aminobenzoxazol-5-yl)-1-isopropyl-1H-pyrazolo[3,4-d]pyrimidin-6-ylamine] | 6.8 nM | 15.5 nM | 6.1 nM |  |  |  | 
CC(C)[C@H](C)n1nc(-c2cc3nc(N)oc3cc2Cl)c2c(N)nc(N)nc21 [Example 25, 3-(2-amino-6-chlorobenzoxazol-5-yl)-1-((S)-1,2-dimethylpropyl)-1H-pyrazolo[3,4-d]pyrimidine-4,6-diamine] | 4.5 nM | 13.1 nM | 8.1 nM |  |  |  | 
CNc1nc(N)c2c(-c3ccc4oc(N)nc4c3)nn(C(C)C)c2n1 [Example 26, 3-(2-Aminobenzoxazol-5-yl)-1-isopropyl-N^6-methyl-1H-pyrazolo[3,4-d]pyrimidine-4,6-diamine] | 29.7 nM | 62.2 nM | 13.4 nM |  |  |  | 
Cc1nc(N)nc2c1c(-c1ccc3oc(N)nc3c1)nn2CC(C)(C)C [Example 27, 5-(6-amino-4-methyl-1-neopentyl-1H-pyrazolo[3,4-d]pyrimidin-3-yl)benzo[d]oxazol-2-amine] | 8.1 nM | 15.3 nM | 14.3 nM |  |  |  | 
CC(C)n1nc(-c2ccc3oc(NC4CC4)nc3c2)c2c(N)nc(N)nc21 [Example 28, 3-(2-cyclopropylaminobenzoxazol-5-yl)-1-isopropyl-1H-pyrazolo[3,4-d]pyrimidine-4,6-diamine] | 43.8 nM | 40.2 nM | 21 nM |  |  |  | 
CCC(C)(C)Cn1nc(-c2cc(C)c3oc(N)nc3c2)c2c(N)nc(N)nc21 [Example 29, 3-(2-amino-7-methylbenzoxazol-5-yl)-1-(2,2-dimethylbutyl)-1H-pyrazolo[3,4-d]pyrimidine-4,6-diamine] | 234 nM | 746 nM | 102 nM |  |  |  | 
CC(C)n1nc(-c2ccc3oc(N)nc3c2)c2c(Cl)nc(N)nc21 [Example 31, 5-(6-Amino-4-chloro-1-isopropyl-1H-pyrazolo[3,4-d]pyrimidin-3-yl)benzo[d]oxazol-2-amine] | 8.4 nM | 21 nM | 10 nM | −39% | −40 | −68% | reduces all the parameters studied
